Measurements: article PMC12156367, “Synthesis and Biological Evaluation of Seco-Coumarin/Furoxan Hybrids as Potent Anti-Tumor Agents to Overcome Multidrug Resistance via Multiple Mechanisms” (Molecules, 2025)
Where two headings read alike, the source gives them in different places.

How the values were obtained:
[1] = system: MCF-7/ADR (doxorubicin-resistant human breast cancer cell line); details: earlier compounds, ref 19 (4A93), 20 (6C44), cited from earlier work; for IC50: read-out: IC50 MCF-7/ADR (Figure 2)
[2] = system: MCF-7/ADR (doxorubicin-resistant human breast cancer cell line); assay: In vitro antiproliferative assay (MTT, 48 h), MCF-7/ADR; format: cell-based; details: for Selectivity Ratio IC50(MCF-7)/ IC50(MCF-7/ADR): collateral sensitivity; for IC50: Homo sapiens, NCI/ADR-RES, MTT, 48 h, mean of three determinations
Description: (§1) The MDA-MB-468 cell line was procured from the Cell Bank of the Chinese Academy of Sciences. The MCF-7, MCF-7/ADR, MCF-10A, and MDA-MB-231 cell lines were kindly provided by Professor Xianyi Sha (Fudan University, Shanghai, China). The HUVEC cells were kindly provided by Associate Professor Hulie Zeng (Fudan University, Shanghai, China). The MDA-MB-468, MDA-MB-231, MCF-7, MCF-10A, and HUVEC cells were cultivated in DMEM (Service Biotechnology, China) supplemented with 10% FBS (Capricorn Scientific, Germany) and 1% penicillin-streptomycin (Meilunbio, Dalian, China). For the MCF-7/ADR cells, they were cultured in RPMI-1640 (Service Biotechnology, Wuhan, China), containing 10% FBS and 1% penicillin-streptomycin. Additionally, 500 ng/mL of doxorubicin (Sigma-Aldrich, Saint Louis, MO, USA) was incorporated into the RPMI-1640 culture medium to keep drug resistance. All cell lines were cultured in a humidified incubator at 37 °C with a 5% CO2 atmosphere.
Following harvest during logarithmic growth, cells were plated in 96-well culture plates at an initial density of 5000 cells per well. Incubate the plate overnight at 37 °C to allow the cells to adhere. Following the overnight incubation, introduce the compound at the predetermined concentration into each well, and then return the plate to the incubator for an additional 48 h culture period. After the 48 h treatment, carefully aspirate the drug-containing medium from each well. Subsequently, add 150 μL of 0.5 mg/mL MTT (Beyotime, China) solution to each well. Protect the plate from light and incubate it at 37 °C for 4 h to allow the formation of formazan crystals. Finally, add 150 μL of DMSO (Sinopharm, China) to each well and gently mix to ensure complete dissolution of the formazan crystals. The OD value at 570nm was measured using a microplate reader (Thermo Fisher, Waltham, MA, USA). Cell proliferation inhibition was determined using the following formula:Inhibition (%) = [(ODDMSO − ODcompd.)/(ODDMSO − ODblank)] × 100
GraphPad Prism software 9 was used to calculate the IC50 values. The specific calculation process is as follows: Firstly, we input the experimental data into Prism. The data include the concentrations of the experimental compounds and the corresponding biological response values. For instance, in the cell experiment, we recorded the cell viability values at different drug concentrations. Subsequently, we select the option of “Dose–Response–Nonlinear Regression” in the “Analyze” menu for curve fitting. Generally speaking, we use the model of “[Inhibitor] vs. normalized response—Variable slope”. The Prism software fits the data through the nonlinear least squares method and finds the parameter values that can minimize the difference between the model’s predicted values and the actual data. After completing the curve fitting, the software will directly provide the estimated values and confidence intervals of the IC50 value and other relevant parameters. Meanwhile, it will also offer goodness-of-fit indices, such as the correlation coefficient, to evaluate the quality of the fitting. Through the above method, we can accurately calculate the IC50 value, thereby assessing the intensity of the inhibitory or activating effect of the compound on the biological system.

[3] = Solubility experiment (HPLC) in water/acetonitrile; format: physicochemical; details: in water/acetonitrile (table title)
Procedure: Wavelength: 254 nm; flow rate: 1.0 mL/min; column temperature: 25 °C. Mobile phase: Phase A: water, Phase B: acetonitrile (Table 5).
Compounds were dissolved in chromatographic-grade acetonitrile and diluted to concentrations of 200, 100, 50, 25, 12.5, and 6.25 µg/mL. A standard curve was plotted using the peak area under the curve (AUC) versus concentration. […] The supernatant was filtered through an ultrafiltration membrane and then subjected to HPLC analysis. The solubility of the target compound was determined by substituting the AUC of the test compound into the standard curve. Each measurement was performed in triplicate.

[4] = system: human normal mammary epithelial cell lines MCF-10A; assay: Cytotoxicity in normal mammary epithelial cells (MTT); format: cell-based; details: normal mammary epithelial cell line
Description: as §1, with “Additionally, 500 ng/mL of doxorubicin (Sigma-Aldrich, Saint Louis, MO, USA) was incorporated into the RPMI-1640 culture medium to keep drug resistance. All cell lines were cultured in a humidified incubator at 37 °C with a 5% CO2 atmosphere.” left out
(§2) Following harvest during logarithmic growth, cells were plated in 96-well culture plates at an initial density of 5000 cells per well. […] The OD value at 570nm was measured using a microplate reader (Thermo Fisher, Waltham, MA, USA). Cell proliferation inhibition was determined using the following formula:Inhibition (%) = [(ODDMSO − ODcompd.)/(ODDMSO − ODblank)] × 100
GraphPad Prism software 9 was used to calculate the IC50 values. […] For instance, in the cell experiment, we recorded the cell viability values at different drug concentrations. […]

[5] = system: HUVEC (human umbilical vein endothelial cell lines); assay: Cytotoxicity screen in HUVEC; format: cell-based; details: 500 nM concentration
Description: as §1
as §2, with “well. Incubate the plate overnight at 37 °C to allow the cells to adhere.” for “well.”, “100 […]” for “100”

SMILES	IC50 [1] [nM]	IC50(MCF-7)/IC50(MCF-7/ADR) (Figure 2) [1]	Selectivity Ratio IC50(MCF-7)/ IC50(MCF-7/ADR) [2]	Solubility [3] [%]	IC50 [4] [nM]	cell survival probability in HUVEC [5]	IC50 [2] [nM]
Cc1c(Cc2ccc(C(F)(F)F)cc2)c(=O)oc2cc(OCCOc3no[n+]([O-])c3S(=O)(=O)c3ccccc3)ccc12 [Compound 4A93]	5	–	–	–	–	–	–
COc1cc(OCCOc2no[n+]([O-])c2S(=O)(=O)c2ccccc2)ccc1C(=O)/C=C/c1ccccc1 [Compound 6C44]	4.2	199.2	–	–	–	–	–
COc1ccc(/C=C/C(=O)c2ccc(OCCCOc3no[n+]([O-])c3S(=O)(=O)c3ccccc3)cc2OC)cc1 [Compound 6d, (E)-4-(3-(3-methoxy-4-(3-(4-methoxyphenyl)acryloyl)phenoxy)propoxy)-3-(phenylsulfonyl)-1,2,5-oxadiazole 2-oxide]	–	–	91.1	24.3 ± 2.5	13400	–	–
COc1cc(OCCOc2no[n+]([O-])c2S(=O)(=O)c2ccccc2)ccc1C(C)=O [Compound 12a, 4-(2-(4-acetyl-3-methoxyphenoxy)ethoxy)-3-(phenylsulfonyl)-1,2,5-oxadiazole 2-oxide]	–	–	189.3	67.9 ± 7.8	–	over 90%	–
COc1cc(OCCOc2no[n+]([O-])c2S(=O)(=O)c2ccccc2)ccc1C(=O)NCc1ccc(C(F)(F)F)cc1 [Compound 18d, 4-(2-(3-methoxy-4-((4-(trifluoromethyl)benzyl)carbamoyl)phenoxy)ethoxy)-3-(phenylsulfonyl)-1,2,5-oxadiazole 2-oxide]	–	–	163.0	26.2 ± 7.2	–	–	6.56
COc1cc(OCCOc2no[n+]([O-])c2S(=O)(=O)c2ccccc2)ccc1C(=O)NCc1ccc(C#N)cc1 [Compound 18e, 4-(2-(4-((4-cyanobenzyl)carbamoyl)-3-methoxyphenoxy)ethoxy)-3-(phenylsulfonyl)-1,2,5-oxadiazole 2-oxide]	–	–	235.0	44.7 ± 10.2	–	–	19.9
